Test results: patent publication US8816078B2, “Acidic gas removal by aqueous amine solvents” (Board of Regents, The University of Texas System, priority 2010, dated 2014)
Where two headings read alike, the source gives them in different places.

How the values were obtained:
[1] = Solubility and solids precipitation limits of amines in water; assay type: physicochemical
[2] = for PCO2* at 40° C.: calculated from CO2 solubility curves
[3] = Solubility measurements of CO2 loaded PZ/1-MPZ/1,4-DMPZ blends; assay type: physicochemical
Protocol: Solubility measurements for CO2 loaded 3.9 m PZ/3.9 m 1-MPZ/0.2 m 1,4-DMPZ and 3.75 m PZ/3.75 m 1-MPZ/0.5 m 1,4-DMPZ solutions were taken to predict the solubility envelope of these blends. The solubility of the blends at varying loadings and temperatures are shown in FIG. 7 for the 3.9 m PZ/3.9 m 1-MPZ/0.2 m 1,4-DMPZ blend and in FIG. 8 for the 3.75 m PZ/3.75 m 1-MPZ/0.5 m 1,4-DMPZ blend. […] At 0° C., the 8 m blend: 3.75 m PZ/3.75 m 1-MPZ/0.5 m […] was soluble at 2° C. with a lean loading of 0.17 mol CO2/mol alkalinity, in contrast to 8 m PZ, which must be operated at loading above 0.3 to avoid solids precipitation.
A maximum CO2 loading of 0.41 and 0.39 was obtained for the 3.9 m PZ/3.9 m 1-MPZ/0.2 m 1,4-DMPZ blend and the 3.75 m PZ/3.75 m 1-MPZ/0.5 m 1,4 DMPZ blend respectively at room temperature without any solid precipitation. Intermediary loaded solutions were prepared by appropriately mixing the rich loaded and zero loaded solutions and observed at temperatures between 0° C. and the melting point of the solution.

[4] = Heat of CO2 absorption calculated from the VLE model; assay type: physicochemical
Protocol: VLE models of CO2 partial pressure were regressed from experimental data to calculate CO2 capacity and enthalpy of CO2 absorption (ΔHabs).
Heat of absorption was calculated from the model mentioned above by applying the following thermodynamic equation: […]
Heat of absorption was calculated from the model mentioned above by applying the Gibbs-Helmholtz equation: […]
The heat absorption of CO2 at a 1.5 kPa, which is an average CO2 partial pressure for lean and rich solutions, was calculated.

[5] = 25° C.; cited from earlier work
[6] = Freeman et al., 2009; cited from earlier work
[7] = Cyclic CO2 capacity calculated from the regressed VLE model; assay type: physicochemical
[8] = CO2 Loading 0.035 mol/mole Alkalinity
[9] = CO2 Loading 0.037 mol/mole Alkalinity
[10] = CO2 Loading 0.102 mol/mole Alkalinity
[11] = CO2 Loading 0.104 mol/mole Alkalinity
[12] = CO2 Loading 0.156 mol/mole Alkalinity
[13] = CO2 Loading 0.158 mol/mole Alkalinity
[14] = CO2 Loading 0.209 mol/mole Alkalinity
[15] = CO2 Loading 0.217 mol/mole Alkalinity
[16] = CO2 Loading 0.251 mol/mole Alkalinity
[17] = CO2 Loading 0.266 mol/mole Alkalinity
[18] = CO2 Loading 0.303 mol/mole Alkalinity
[19] = CO2 Loading 0.313 mol/mole Alkalinity, listed as 8 m PZ
[20] = CO2 Loading 0.313 mol/mole Alkalinity, listed as 10 m PZ
[21] = CO2 Loading 0.330 mol/mole Alkalinity
[22] = Conc. (m): MDEA/PZ 7/2, PZ 8, MEA 7, HEP 7.7, AEP 6, 2-PE 8, AMP 4.8, EDA 12, DGA 10, PZ-MPZ 4/4, MPZ 8

oxidative degradation [1]: resistant to oxidative degradation
CO2 loading below which PZ.6 H2O solids precipitate ([1]; 0° C.): less than 0.3
CO2 loading above which protonated piperazine carbamate precipitates ([1]; ambient temperature): greater than 0.45 moles/equivalent amine
solubility in water ([1]; zero CO2 loading, ambient temperatures, precipitation of PZ.6H2O): about 2 m
PCO2* at 40° C. ([2]; CO2 Loading 0 mol/mole Alkalinity): 0.0014 kPa
Transition Temp ([2]; CO2 Loading 0 mol/mole Alkalinity, listed as 8 m PZ): 43.0 °C
Transition Temp ([2]; CO2 Loading 0 mol/mole Alkalinity, listed as 10 m PZ): 43 °C
Transition Temp [2, 8]: 40.0 °C
PCO2* at 40° C. [2, 8]: 0.0023 kPa
Transition Temp [2, 9]: 40.5 °C
PCO2* at 40° C. [2, 9]: 0.0023 kPa
Transition Temp [2, 10]: 38.5 °C
PCO2* at 40° C. [2, 10]: 0.0068 kPa
Transition Temp [2, 11]: 38.5 °C
PCO2* at 40° C. [2, 11]: 0.0070 kPa
Transition Temp [2, 12]: 35 °C
PCO2* at 40° C. [2, 12]: 0.0179 kPa
Transition Temp [2, 13]: 33.0 °C
PCO2* at 40° C. [2, 13]: 0.0185 kPa
Transition Temp [2, 14]: 26.5 °C
PCO2* at 40° C. [2, 14]: 0.0499 kPa
Transition Temp [2, 15]: 27 °C
PCO2* at 40° C. [2, 15]: 0.0589 kPa
Transition Temp [2, 16]: 18.0 °C
PCO2* at 40° C. [2, 16]: 0.1216 kPa
Transition Temp [2, 17]: 18 °C
PCO2* at 40° C. [2, 17]: 0.1679 kPa
Transition Temp [2, 18]: 3.0 °C
PCO2* at 40° C. [2, 18]: 0.3892 kPa
PCO2* at 40° C. [2, 19]: 0.4862 kPa
PCO2* at 40° C. [2, 20]: 0.4830 kPa
Transition Temp [2, 19]: 0 °C
Transition Temp [2, 20]: 5.5 °C
Transition Temp [2, 21]: 0 °C
PCO2* at 40° C. [2, 21]: 0.7252 kPa
CO2 loading needed to maintain an aqueous solution ([2]; room temperature (21° C.)): 0.23 mole CO2 per mole alkalinity
highest CO2 loading usable without risk of solid precipitation ([2]; solvent at 0° C.): ≤ 0.4 moles CO2/equiv PZ
lowest CO2 loading usable without risk of solid precipitation ([2]; solvent at 0° C.): ≥ 0.3 moles CO2/equiv PZ
CO2 loadings at which solid H+PZCOO−.H2O is formed [3]: ≥ 0.43
loading above which the solvent must be operated to avoid solids precipitation ([3]; 0° C.): above 0.3
CO2 loadings at which solid PZ.6H2O is formed ([3]; 25° C.): ≤ 0.22
Heat of CO2 absorption (ΔHabs) ([4]; 8 m MPZ, 4 m PZ/4 m MPZ blend, 8 m PZ): 70 kJ/mol
ΔHabs@PCO2 = 1.5 kPa [4, 22]: 70 kJ/mol
heat absorption of CO2 ([4]; at 1.5 kPa CO2 partial pressure): 70 kJ/mol
CO2 Capacity [7, 22]: 0.79 mol/kg (water + amine)
cyclic CO2 capacity ([7]; difference between lean and rich CO2 loading at 500 Pa and 5,000 Pa CO2 partial pressure): 0.79 mol CO2/kg (water+amine)
SMILES: C1CNCCN1 [PZ, piperazine]
solubility in water [5]: less than 2 M
temperature up to which highly resistant to thermal degradation [6]: up to 150 °C
